Counter-ions that a name gives are not always drawn.
Assays:
[1] = Stability of octopamine forms exposed to the atmosphere (in-house results); assay type: physicochemical; conditions: normal atmospheric conditions; according to our calculations
Source text: First, we have discovered that octopamine in the base form is very unstable and oxidizes rapidly when readily exposed to the atmosphere.
For instance, although the half-life of octopamine base is roughly 6 months, the half-life for octopamine salts of this invention such as octopamine HCl is at least 5 years according to our calculations. To be used commercially for metabolic enhancement, it is of extreme importance that the octopamine form used has a shelf life long enough so that the octopamine remains filly efficacious for at least one year and preferably two years.

[2] = Example 1: weight loss in subjects given capsules, no change of diet or exercise; assay type: in vivo, human; design: average weight loss: unit not given here; conditions: 6 mg/kg per day calculated as octopamine base; for average weight loss: capsules, divided dosages
Procedure: Octopamine base, octopamine HCl, octopamine malate, and octopamine ethylcarbonate were prepared and given as capsules in divided dosages at 6 mg/kg per day calculated as octopamine base.

[3] = Example 2: change in percent bodyfat and lean body mass, perceived energy and mental outlook in subjects; assay type: in vivo, human; conditions: for Change Percent Bodyfat / Change Percent Lean Body Mass: 6 mg/kg per day calculated as octopamine base; for Perceived Energy / Perceived Mental Outlook and Focus: subjective, scale of 1-10, 6 mg/kg per day
Procedure: Octopamine HCl was prepared and given as capsules in divided dosages at 6 mg/kg per day calculated as octopamine base. […] Subjective results are also shown regarding perceived energy and mental outlook and focus (scale of 1-10): […]

[4] = Metabolic potency, bioavailability and tolerability of octopamine salts versus base in users; assay type: in vivo, human
Source text: Finally, we have discovered that the base form of octopamine has significant bioavailability problems. […] There is thus great need for an improvement to this technology which allows octopamine to be a commercially viable option for metabolic enhancement.
We have found the octopamine salts of this invention are up to four times more efficient at affecting specific metabolic parameters than octopamine base.
The octopamine salts of this invention can be commercially used in various ways as metabolic enhancers. For instance, we have found usefulness with these compounds as weight loss agents. […] Even in high dosages, the user feels no noticeable negative effect on his general feeling or overall state of well-being. Furthermore, these octopamine salts specifically enhance the loss of adipose tissue while preserving lean body mass such as muscle tissue. A significant problem for anyone trying to lose unwanted adipose tissue is the concurrent loss of lean body mass. Lean body mass includes tissues such as muscle, kidney, liver, heart and bone. For a person to feel healthy and strong, these tissues must also be healthy and strong. […]
Human dosaging for the octopamine salts of this invention is most preferable in the range of 5-15 mg/kg of bodyweight calculated as base octopamine. […]

NCC(O)c1ccc(O)cc1 (stereo not drawn) [Octopamine HCl]
half-life [1]: ≥ 1830 days
average weight loss ([2]; Week 1, HCl, 6 mg/kg/day): 2
average weight loss ([2]; Week 4, HCl, 6 mg/kg/day): 6
average weight loss ([2]; Week 8, HCl, 6 mg/kg/day): 9
Change Percent Bodyfat ([3]; Week 1): −.5%
Change Percent Lean Body Mass ([3]; Week 1): 0%
Perceived Energy ([3]; Week 1): 6
Perceived Mental Outlook and Focus ([3]; Week 1): 7
Change Percent Bodyfat ([3]; Week 4): −2%
Change Percent Lean Body Mass ([3]; Week 4): +.3%
Perceived Energy ([3]; Week 4): 8
Perceived Mental Outlook and Focus ([3]; Week 4): 7
Change Percent Bodyfat ([3]; Week 8): −4%
Change Percent Lean Body Mass ([3]; Week 8): +1%
Perceived Energy ([3]; Week 8): 8
Perceived Mental Outlook and Focus ([3]; Week 8): 9

NCC(O)c1ccc(O)cc1 (stereo not drawn) [Octopamine base, Octopamine]
weight loss (result in words) ([2]; up to Week 8): neither the octopamine base nor the control resulted in appreciable or significant weight loss
average weight loss ([2]; Week 1, 6 mg/kg/day): 0
average weight loss ([2]; Week 4, 6 mg/kg/day): 1
average weight loss ([2]; Week 8, 6 mg/kg/day): 2
minimum effective dosage relative to the octopamine salts of the invention [4]: nearly four times

Octopamine ethylcarbonate
average weight loss ([2]; Week 1): 2
average weight loss ([2]; Week 4): 6
average weight loss ([2]; Week 8): 10

Octopamine malate
average weight loss ([2]; Week 1): 1
average weight loss ([2]; Week 4): 5
average weight loss ([2]; Week 8): 10
